# Test results as given in US20140370594A1, “BIOLOGICAL CONVERSION OF BIOMASS-DERIVED SUGARS TO VALUE ADDED CHEMICALS” (WISCONSIN ALUMNI RESEARCH FOUNDATION, priority 2013, published 2014).
# Legend:
# E. coli and yeasts = assay: Sensitivity of growth to GVL versus NaCl concentration (FIGS. 9-13); assay type: cell-based; conditions: minimal media supplemented with GVL or NaCl, aerobic
# Text: (§1) Test media for E. coli and P. putida were made using MOPS minimal salts and either varying the weight percent of NaCl and GVL or varying dilutions of the aqueous product stream in water. L. casei test media were made using Chemically Defined Media for L. casei and yeast aerobic test media were made with Yeast Nitrogen Base (6.7 g/L; Difco, a wholly owned subsidiary of Becton Dickinson and Company, Franklin Lakes, N.J.). Yeast anaerobic media were made with Yeast Nitrogen Base and supplemented with Tween 80 (0.4 wt %) and amino acids (50 mg/L).
# The next step was to investigate the sensitivity of various microorganisms to salt concentration and GVL concentration. This was accomplished by measuring the growth of E. coli and yeasts in minimal media supplemented with known concentrations of GVL or NaCl under aerobic conditions. The results are depicted in FIGS. 9 through 13. FIG. 9 depicts the growth characteristics of E. coli TY05 in response to increasing concentrations of GVL. FIG. 10 depicts the growth characteristics of S. cerevisiae in response to increasing concentrations of GVL. FIG. 11 depicts the growth characteristics of S. cerevisiae PE2 in response to increasing concentrations of NaCl. FIG. 12 depicts the growth characteristics of S. passalidarum NN245 in response to increasing NaCl concentration. […]
# yeast = assay: Growth in minimal media supplemented with GVL, aerobic (FIGS. 9-13); assay type: cell-based; conditions: GVL concentrations of about 2% (wt/vol) and less, minimal medium
# Protocol: Yeast cultures were picked from single colonies and grown aerobically overnight in rich YPD broth (5 mL) (Sigma-Aldrich, St. Louis, Mo.) at 30° C. and 250 rpm. The yeast tested were Saccharomyces cerevisiae PE2 (Lallemand, Inc., Montreal, Quebec, Canada; see also Silva-Filho E A, Melo H F, Antunes D F, Santos S K B, Resende A M, Simões D A, Morais M A Jr, “Isolation by genetic and physiological characteristics of a fuel-ethanol fermentative Saccharomyces cerevisiae strain with potential for genetic manipulation,” J Ind Microbiol Biotechnol 2005, 32:481-486), Spathaspora passalidarum NN245 (ARS Culture Collection, NRRL Y-50740), Scheffersomyces stipitis 7124 (ATCC® 58376), and Scheffersomyces stipitis 6054 (ATCC® 58785).
# For the aerobic test media growth experiments, an overnight culture was used to inoculate test media (2 mL) to an OD600 of 0.01. The test cultures were then incubated for 40 hours under the same conditions. A final OD600 was measured after the 40-hour incubation period.
# Test media for E. coli and P. putida were made using MOPS minimal salts and either varying the weight percent of NaCl and GVL or varying dilutions of the aqueous product stream in water. […]
# E. coli = assay: as above; assay type: cell-based, Escherichia coli; conditions: GVL concentrations of about 2% (wt/vol) and less, minimal medium
# Protocol: Overnight cultures of E. coli were started from single colonies picked into LB (5 mL) and incubated at 37° C. […] with 250 rpm shaking. The overnight cultures were used to inoculate test media (2 mL) to an OD600 (optical density at 600 nm) of 0.01. These cultures were then incubated as described below. The final OD600 of each culture was measured after 24 hours of incubation.
# as §1
# The next step was to investigate the sensitivity of various microorganisms to salt concentration and GVL concentration. This was accomplished by measuring the growth of E. coli and yeasts in minimal media supplemented with known concentrations of GVL or NaCl under aerobic conditions. The results are depicted in FIGS. 9 through 13. FIG. 9 depicts the growth characteristics of E. coli TY05 in response to increasing concentrations of GVL. […]
smiles,measurement,setting,value
"CC1CCC(=O)O1 (stereo not drawn) [GVL, gamma-valerolactone]",impact of concentration on cell growth as compared to NaCl,E. coli and yeasts,stronger impact on cell growth
same,growth in the presence of GVL,yeast,very significant growth
same,growth in the presence of GVL,E. coli,very significant growth
